From a melting point compilation (Tetko et al.; mined from patent text by program, amines drawn as free bases though some values may be those of a salt)

SMILES	melting point [°C]
COc1cc(OC)c2c(=O)[nH]c(-c3cc(C)c(OCCN4CCN(C)CC4)c(C)c3)nc2c1	180 to 182
CC12CCC3C(CCC4CC(F)CCC43C)C1CCC2O (stereo not given)	150 to 151
CCCCCCCCCCCC(=O)c1ccc(-c2ccc(O)c(F)c2)cc1	123 to 124
CC(C)Cn1c(CO)c(-c2cccc(F)c2)c2cc(OCc3ccccc3)ccc2c1=O	146
COC(=O)C1Cc2c([nH]c3ccccc23)C(c2cc(OC)ccc2OC)N1 (stereo not given)	102 to 105
CCCOc1ccc(S(=O)(=O)N(C)C)cc1-c1ccc(C#N)c(=O)[nH]1	225 to 226
COc1ccc(S(=O)(=O)c2ccc(C)nc2Nc2c(C)cc(C)cc2C)cc1	165 to 167
COC(=O)c1cc(C)c(C(OC(=O)C(C)c2ccc3cc(OC)ccc3c2)c2cc(-n3ccnc3)ccc2C)c(C)c1 (stereo not given)	115 to 117
CCOc1c(N2CCNCC2)c(F)cc2c(=O)c(C(=O)O)cn(C3CC3)c12	119 to 122
COc1ccc(C(=NOCC(=O)O)c2ccc(OC)cc2)cc1	105 to 107
O=C1N(CC2COCCO2)c2ccccc2C12COc1cc3c(cc12)OCCO3 (stereo not given)	198 to 199
Cn1cc(C2=C(c3c[nH]c4cc([N+](=O)[O-])ccc34)C(=O)NC2=O)c2ccccc21	> 260
Cc1ccc(C2CNCc3[nH]c4ccccc4c32)cc1 (stereo not given)	223 to 224
C=Cc1ccc(CN2CCN(Cc3ccc(C=C)cc3)CCN(Cc3ccc(C=C)cc3)CC2)cc1	71 to 73
O=S(=O)(NCc1ccnc2ccccc12)c1ccc(Cc2ccccc2)cc1	106 to 107
N#Cc1ccc(N2C(=O)C3C(F)CCN3C2=O)c2ccccc12 (stereo not given)	228 to 230
COc1ccc(C2CC(c3ccccc3)=NN2c2ccc(C(=O)O)cc2)cc1 (stereo not given)	226
CS(=O)(=O)c1ccc(-c2oc(CCCC(=O)O)nc2-c2ccc(F)cc2)cc1	140 to 141

SMILES	melting point [°C]
O=C(O)c1cnc(CO)s1	193
CSc1noc(-c2ccc(OCCOc3ccc(C)cc3)cc2)c1C#N	139 to 140
CCn1ncc2c3noc(-c4ccc(OC)cc4)c3cnc21	215 to 216
COCCN1CCC(c2nc3cc(-c4ccc(-n5cnnn5)cc4F)ccc3o2)CC1	148 to 152
CC(C)(C)OC(=O)C[C@@H](CC1CCCC1)C(=O)O	86.5 to 88
CC(C)[C@H](NC(=O)OC(C)(C)C)[C@H]1CCn2c(c(C3=C(c4cn(-c5ccccc5)c5ccccc45)C(=O)NC3=O)c3ccccc32)C1	165 to 168
Cc1cc(Oc2ccc(-c3ccn(CC4CC4)c(=O)c3C#N)cc2F)cc(C)n1	201
Nc1nc2ccccc2c2c1nc(CNC(=O)C1CC1)n2CC1(O)CCCCC1	> 250
CCCCCS(=O)(=O)NC(=O)CCc1ccc(OCCOC)cc1OC1CCCCC1	64.1 to 65.4
Nc1ccc2nc(N3CCOCC3)nn2c1	165
CN1C(=O)C(NC(=O)Nc2ccc(Cl)c(Cl)c2)N=C(c2ccccc2)c2ccccc21 (stereo not given)	274 to 276
Nc1nc(-c2ccncc2)nc(N)c1N	230 to 232
CCCCC(=CC(N)C(=O)O)CP(=O)(O)O (stereo not given)	186 to 187
CCCn1c(CCOC)nc2c(N)nc3cc(OCCCN)ccc3c21	165 to 166
CC12CCC3c4ccc(C(=O)O)cc4CCC3C1CCC2C(=O)c1cc(F)cc(F)c1 (stereo not given)	258 to 261
CC(=O)N(C(C)=O)C1=C(N2CCN(Cc3cc(=O)[nH]c(=O)[nH]3)CC2)C(=O)c2ccccc2C1=O	152 to 154
CC1CC2C3CC(F)C4=CC(=O)C=CC4(C)C34OC4CC2(C)C1(O)C(=O)CO (stereo not given)	241 to 242

Now from value to compound:

melting point [°C]	SMILES
141 to 143	COC(=O)c1cc(OC)c([N+](=O)[O-])cc1NC(C)=O
100	CCOc1ccc([N+](=O)[O-])c(Nc2ccc(C(C)C)cc2)c1
182	COc1cccc(NC(=O)NCC(=O)N(c2ccccc2)c2ccccc2)c1
198 to 200	NC(=O)c1ccnc(-c2ccc(Oc3ccc(Cl)cc3F)cc2)n1
187 to 188	CC(C(=O)O)C(=O)Nc1cccc(S(=O)(=O)n2c(=O)[nH]c3cc(Cl)ccc3c2=O)c1 (stereo not given)
85 to 85.5	O=C(Cc1ccc(Cl)cc1)N1CCCCC1
78 to 79	Cc1oc2cc(CO)ccc2c1C
82 to 84	CCOC(=O)c1cnn2c1c(NC(C)CC)nc1ccccc12 (stereo not given)
125 to 126	Cc1nc(C(=O)Nc2ccc3[nH]cc(C4CCN(C)CC4)c3n2)c(C)s1
84 to 86	N#CCCOc1cccc(O)c1C=O
114 to 118	Cc1c(Cl)cc(C(=O)C(O)CC(=O)O)cc1Cl (stereo not given)
157 to 161	CCOC(=O)C1=C(COCCn2c(C)nc3ccccc32)NC(C)=C(C(=O)NC(C)(C)C)C1c1ccccc1Cl (stereo not given)
248 to 250	CC(C)c1ccc(-c2cn(-c3cccc(C(=O)O)c3)cn2)cc1
189 to 191	Cc1cccc(NC(=O)OC(C)(C)C)c1COc1cccn2c(C=O)c(C)nc12
236 to 238	O=C(O)/C=C/c1ccc(C(c2cc(F)ccc2F)S(=O)(=O)c2ccc(Cl)cc2)nc1 (stereo not given)
141	CCN(CC)C(=O)Nc1ccc(Oc2ccc3sncc3c2)c(Cl)c1
115	COC(=O)CCCc1cc2nc(Cl)ccc2n1S(=O)(=O)c1ccccc1OC
162 to 164	CCOc1c(C(=O)O)sc2ccc(OC)cc12

melting point [°C]	SMILES
152 to 154	CC1=C(C)C(=O)N(c2ccc(C)c(NS(=O)(=O)C(F)(F)F)c2)C1=O
251 to 252	COc1ccc2c(c1)C(=O)c1c-2c(Nc2ccc(C(C)=O)cc2)nc2ccccc12
173 to 174	Cn1c(=O)c(-c2c(Cl)cccc2Cl)cc2cnc(NCCc3ccccn3)nc21
240	CCCC(=O)Nc1n[nH]c2cc(-c3ccc4c(c3)OCO4)ccc12
172 to 174	NCCCC(=O)N1CCC(c2[nH]nc3c2C(=O)c2c(NC(=O)NN4CCOCC4)cccc2-3)CC1
163 to 165	CSc1nn2c(Cl)cc(C)nc2c1S(=O)(=O)c1ccccc1
117 to 119	CC(=O)NCC1CN(C(c2ccccc2)c2ccccc2)C1
127 to 130	C=CCc1cccc2c(=O)cc(-c3ccc(F)c(F)c3)oc12
208 to 209	CNC(=O)C1=CC2(CCSCC2)Oc2ccc([N+](=O)[O-])cc21
> 300	O=c1c2ccc(Cl)cc2[nH]n2cccc12
161 to 162	COCOc1ccc(Cl)cc1-c1cc(-c2cccc([N+](=O)[O-])c2)c(C#N)c(NC(=O)c2cccs2)n1
111	COC(C)=CC(=O)Nc1cccc(OC(C)=O)c1
107	C[C@@H](S[C@H]1CO[C@H](c2ccc(C(=O)Nc3nc4ccccc4s3)cc2)OC1)[C@](O)(Cn1cncn1)c1ccc(F)cc1F
205 to 207	O=C1CN(C(=O)CN2CC(c3ccc(Cl)cc3)CC2=O)CCN1 (stereo not given)
172 to 175	COc1ccc(C(=O)Nc2ccccc2)cc1NCc1cccc([N+](=O)[O-])c1
168	CCSc1nc(=O)n(C(=O)Nc2cccc(Cl)c2)s1
230 to 231	CCCn1c(=O)[nH]c(Cl)c(-c2ccccc2)c1=O
